These are literature values, as cited in patent publication EP3733197A1, “ANAEROBIC ANTIOXIDANT COMPOSITION” (Pitcher, Stephen N., priority 2019, dated 2020).

For data set [1] the following is noted: in vivo.

In the case of `CC(=O)N[C@@H](CS)C(=O)O` [NAC, N-acetylcysteine], in data set [1], the half-life result is “approximately 5.6 hours” and the “renally excreted by the body” value is given as 30%. Moreover, the pregnancy risk result (in vivo) is “category B”. For the same compound, for the setting “orally administered or inhaled”, the associated adverse effects result was “drowsiness, stomatitis, clamminess, rhinorrhea, and hemoptysis”.
